Test results as given in patent publication US4898858A, “Cephalosporin derivatives and antibiotics containing the same” (Meiji Seika Kaisha Ltd., priority 1985, dated 1990).
Converted amounts (≈) assume the structure as drawn. Where two headings read alike, the source gives them in different places.

Legend:
Assay in all cases: minimum growth-inhibitory concentration (MIC) in vitro
[1] = tested on: Staphylococcus aureus 606; assay type: cell-based
[2] = tested on: Serratia marcescens GN-629; assay type: cell-based; settings: GN629
[3] = tested on: Pseudomonas aeruginosa GN-10362; assay type: cell-based; settings: GN10362
[4] = tested on: Proteus rettgeri GN-624; assay type: cell-based; settings: Providencia rettgeri, GN624
[5] = tested on: Proteus morganii 1510; assay type: cell-based; settings: Morganella morganii
[6] = tested on: Enterobacter Cloacae G-0008; assay type: cell-based
[7] = tested on: Escherichia coli No.29; assay type: cell-based
[8] = tested on: Proteus vulgais GN-76/C-1; settings: Proteus vulgaris, GN76, read-out: MIC-value
[9] = tested on: Enterobacter Cloacae G-0005; assay type: cell-based
[10] = tested on: Escherichia coli ML1410; assay type: cell-based
[11] = tested on: Staphylococcus aureus 606 E-25; assay type: cell-based; settings: 606E25
[12] = tested on: Proteus vulgais GN-76; assay type: cell-based
[13] = tested on: Pseudomonas aeruginosa E-2; assay type: cell-based; settings: E2
[14] = tested on: Klebsiella pneumoniae GN-69; assay type: cell-based
[15] = tested on: Serratia marcescens GN-10857; assay type: cell-based; settings: GN10857
[16] = tested on: Staphylococcus aureus 209P JC-1; assay type: cell-based
[17] = tested on: Pseudomonas aeruginosa MB-3833; assay type: cell-based; settings: MB3833
[18] = tested on: Escherichia coli NIHJ JC-2; assay type: cell-based
[19] = tested on: Klebsiella pneumoniae GN-118; assay type: cell-based; settings: GN118
[20] = tested on: Salmonella enteritidis No.11; assay type: cell-based; settings: Salmonella enterica
[21] = tested on: Salmonella typhimurium LT-2; assay type: cell-based; settings: Salmonella enterica
[22] = tested on: Proteus rettgeri J-0026; assay type: cell-based; settings: Providencia rettgeri, J0026
[23] = tested on: Streptocuccus faecalis W-75; assay type: cell-based
[24] = GN69, Klebsiella pneumoniae GN-69, in vitro, read-out: MIC-value
[25] = NIHJJC2, Escherichia coli NIHJ JC-2, in vitro, read-out: MIC-value

| Compound | MIC [1] [mg/L] | MIC [2] [mg/L] | MIC [3] [mg/L] | MIC [4] [mg/L] | MIC [5] [mg/L] | MIC [6] [mg/L] | MIC [7] [mg/L] | MIC [8] [mg/L] | MIC [9] [mg/L] | MIC [10] [mg/L] | MIC [11] [mg/L] | MIC [12] [mg/L] | MIC [13] [mg/L] | MIC [15] [mg/L] | MIC [17] [mg/L] | MIC [19] [mg/L] | MIC [20] [mg/L] | MIC [21] [mg/L] | MIC [22] [mg/L] | MIC [23] [mg/L] | other results |
| --- | --- | --- | --- | --- | --- | --- | --- | --- | --- | --- | --- | --- | --- | --- | --- | --- | --- | --- | --- | --- | --- |
| C[C@H](O/N=C(\C(=O)N[C@@H]1C(=O)N2C(C(=O)[O-])=C(CSc3cc[n+](CCF)cc3)CS[C@H]12)c1csc(N)n1)C(=O)O [Example 3, (6R,7R)-7-[(Z)-2-(2-Aminothiazol-4-yl)-2-{(1S)-carboxyethoxyimino}acetamido]-3-[{1-(2-fluoroethyl)pyridinium}-4-ylthiomethyl]-ceph-3-em-4-carboxylate] | 3.13 (≈ 5.13 µM) | 0.2 (≈ 0.328 µM) | 1.56 (≈ 2.55 µM) | 0.05 (≈ 0.0819 µM) | 1.56 (≈ 2.55 µM) | 0.1 (≈ 0.164 µM) | 0.1 (≈ 0.164 µM) | 0.05 (≈ 0.0819 µM) | 0.05 (≈ 0.0819 µM) | 0.1 (≈ 0.164 µM) | 3.13 (≈ 5.13 µM) | < 0.025 | 1.56 (≈ 2.55 µM) | 0.78 (≈ 1.28 µM) | 1.56 (≈ 2.55 µM) | < 0.025 | < 0.025 | < 0.025 | 0.1 (≈ 0.164 µM) | 1.56 (≈ 2.55 µM) | MIC [14, 24]: 0.05 mg/L (≈ 0.0819 µM); MIC [16]: 1.56 mg/L (≈ 2.55 µM); MIC [18, 25]: 0.1 mg/L (≈ 0.164 µM) |
| Nc1nc(/C(=N/OC(CF)C(=O)O)C(=O)N[C@@H]2C(=O)N3C(C(=O)[O-])=C(CSc4cc[n+](CCF)cc4)CS[C@H]23)cs1 (some centres unmarked) [Example 6] | 3.13 (≈ 4.98 µM) | 0.2 (≈ 0.318 µM) | 3.13 (≈ 4.98 µM) | < 0.025 | 0.78 (≈ 1.24 µM) | 0.1 (≈ 0.159 µM) | 0.1 (≈ 0.159 µM) | 0.1 (≈ 0.159 µM) | 0.05 (≈ 0.0795 µM) | 0.1 (≈ 0.159 µM) | 3.13 (≈ 4.98 µM) | 0.05 (≈ 0.0795 µM) | 1.56 (≈ 2.48 µM) | 1.56 (≈ 2.48 µM) | 1.56 (≈ 2.48 µM) | < 0.025 | 0.05 (≈ 0.0795 µM) | < 0.025 | 0.2 (≈ 0.318 µM) | 3.13 (≈ 4.98 µM) | MIC ([14]; Klebsiella pneumoniae, GN69, read-out: MIC-value): < 0.025 mg/L; MIC [16]: 1.56 mg/L (≈ 2.48 µM); MIC ([18]; Escherichia coli, NIHJJC2, read-out: MIC-value): 0.05 mg/L (≈ 0.0795 µM) |
| CC(O/N=C(\C(=O)N[C@@H]1C(=O)N2C(C(=O)[O-])=C(CSc3cc[n+](CCF)cc3)CS[C@H]12)c1csc(N)n1)C(=O)O (stereo partly drawn) [Example 1, (6R,7R)-7-{(Z)-2-(2-Aminothiazol-4-yl)-2-(1-carboxyethoxyimino)acetamido}-3-[{1-(2-fluoroethyl)pyridinium}-4-ylthiomethyl]-ceph-3-em-4-carboxylate] | 3.13 (≈ 5.13 µM) | 0.1 (≈ 0.164 µM) | 1.56 (≈ 2.55 µM) | 0.05 (≈ 0.0819 µM) | 1.56 (≈ 2.55 µM) | 0.1 (≈ 0.164 µM) | 0.1 (≈ 0.164 µM) | 0.1 (≈ 0.164 µM) | 0.05 (≈ 0.0819 µM) | 0.1 (≈ 0.164 µM) | 3.13 (≈ 5.13 µM) | 0.05 (≈ 0.0819 µM) | 1.56 (≈ 2.55 µM) | 0.78 (≈ 1.28 µM) | 1.56 (≈ 2.55 µM) | < 0.025 | < 0.025 | < 0.025 | 0.1 (≈ 0.164 µM) | 3.13 (≈ 5.13 µM) | MIC [14, 24]: < 0.025 mg/L; MIC [16]: 3.13 mg/L (≈ 5.13 µM); MIC [18, 25]: 0.1 mg/L (≈ 0.164 µM) |
| CCC(O/N=C(\C(=O)N[C@@H]1C(=O)N2C(C(=O)[O-])=C(CSc3cc[n+](CCF)cc3)CS[C@H]12)c1csc(N)n1)C(=O)O (some centres unmarked) [Example 4] | 6.25 (≈ 10 µM) | 0.78 (≈ 1.25 µM) | 3.13 (≈ 5.01 µM) | 0.05 (≈ 0.08 µM) | 3.13 (≈ 5.01 µM) | 0.39 (≈ 0.624 µM) | 0.39 (≈ 0.624 µM) | 0.2 (≈ 0.32 µM) | 0.39 (≈ 0.624 µM) | 0.39 (≈ 0.624 µM) | 6.25 (≈ 10 µM) | 0.05 (≈ 0.08 µM) | 3.13 (≈ 5.01 µM) | 3.13 (≈ 5.01 µM) | 3.13 (≈ 5.01 µM) | 0.1 (≈ 0.16 µM) | < 0.025 | 0.2 (≈ 0.32 µM) | 0.78 (≈ 1.25 µM) | 6.25 (≈ 10 µM) | MIC [14, 24]: 0.1 mg/L (≈ 0.16 µM); MIC [16]: 6.25 mg/L (≈ 10 µM); MIC [18, 25]: 0.39 mg/L (≈ 0.624 µM) |
| Nc1nc(/C(=N/OC(C(=O)O)C2CCCCC2)C(=O)N[C@@H]2C(=O)N3C(C(=O)[O-])=C(CSc4cc[n+](CCF)cc4)CS[C@H]23)cs1 (some centres unmarked) [Example 5] | 3.13 (≈ 4.61 µM) | 6.25 (≈ 9.21 µM) | 12.5 (≈ 18.4 µM) | 0.39 (≈ 0.575 µM) | 6.25 (≈ 9.21 µM) | 3.13 (≈ 4.61 µM) | 3.13 (≈ 4.61 µM) | 0.78 (≈ 1.15 µM) | 3.13 (≈ 4.61 µM) | 3.13 (≈ 4.61 µM) | 3.13 (≈ 4.61 µM) | 0.78 (≈ 1.15 µM) | 12.5 (≈ 18.4 µM) | 6.25 (≈ 9.21 µM) | 12.5 (≈ 18.4 µM) | 1.56 (≈ 2.3 µM) | 0.2 (≈ 0.295 µM) | 3.13 (≈ 4.61 µM) | 3.13 (≈ 4.61 µM) | 3.13 (≈ 4.61 µM) | MIC [14, 24]: 1.56 mg/L (≈ 2.3 µM); MIC [16]: 1.56 mg/L (≈ 2.3 µM); MIC [18, 25]: 3.13 mg/L (≈ 4.61 µM) |
| CC[n+]1ccc(SCC2=C(C(=O)[O-])N3C(=O)[C@@H](NC(=O)/C(=N\O[C@H](C)C(=O)O)c4csc(N)n4)[C@H]3SC2)cc1 [Example 9, (6R,7R)-7-[(Z)-2-(2-Aminothiazol-4-yl)-2-{(1R)-carboxyethoxyimino}acetamid]-3-(1-ethylpyridinium-4-ylthiomethyl)-ceph-3-em-4-carboxylate] | 6.25 (≈ 10.5 µM) | 0.39 (≈ 0.658 µM) | 3.13 (≈ 5.28 µM) | < 0.025 | 0.78 (≈ 1.32 µM) | 0.1 (≈ 0.169 µM) | 0.1 (≈ 0.169 µM) | 0.1 (≈ 0.169 µM) | 0.2 (≈ 0.337 µM) | 0.1 (≈ 0.169 µM) | 6.25 (≈ 10.5 µM) | 0.1 (≈ 0.169 µM) | 1.56 (≈ 2.63 µM) | 1.56 (≈ 2.63 µM) | 3.13 (≈ 5.28 µM) | 0.05 (≈ 0.0844 µM) | < 0.025 | 0.05 (≈ 0.0844 µM) | 0.2 (≈ 0.337 µM) | 6.25 (≈ 10.5 µM) | MIC [14, 24]: 0.05 mg/L (≈ 0.0844 µM); MIC [16]: 3.13 mg/L (≈ 5.28 µM); MIC [18, 25]: 0.1 mg/L (≈ 0.169 µM) |
| CC[n+]1ccc(SCC2=C(C(=O)[O-])N3C(=O)[C@@H](NC(=O)/C(=N\O[C@@H](C)C(=O)O)c4csc(N)n4)[C@H]3SC2)cc1 [Example 8] | 1.56 (≈ 2.63 µM) | 0.1 (≈ 0.169 µM) |  | 0.05 (≈ 0.0844 µM) | 0.78 (≈ 1.32 µM) | 0.05 (≈ 0.0844 µM) |  | 0.05 (≈ 0.0844 µM) | 0.05 (≈ 0.0844 µM) | 0.1 (≈ 0.169 µM) | 3.13 (≈ 5.28 µM) | 0.025 (≈ 0.0422 µM) | 0.78 (≈ 1.32 µM) | 0.39 (≈ 0.658 µM) | 0.78 (≈ 1.32 µM) | < 0.025 | < 0.025 | < 0.025 | 0.05 (≈ 0.0844 µM) | 0.78 (≈ 1.32 µM) | MIC [14, 24]: < 0.025 mg/L; MIC [18, 25]: 0.1 mg/L (≈ 0.169 µM) |
